In patent US12030883B2, “Hetero-tricyclic compounds as inhibitors of KRAS” (Incyte Corporation, priority 2021, dated 2024):

Assays:
KRAS G12V = KRAS G12V (Homo sapiens, UniProt P01116, G12V); assay: GDP-GTP exchange assay, KRAS G12V (bodipy-GDP/GppNHp, SOS1); format: biochemical; details: bodipy-loaded KRAS G12V 2.5 nM, 3 hours pre-incubation with inhibitor, SOS1 150 nM, GppNHp 500 uM; read-out: G12V_exchange (KRAS_G12V exchange assay IC50)
Protocol: (§1) The inhibitor potency of the exemplified compounds was determined in a fluorescence based guanine nucleotide exchange assay, which measures the exchange of bodipy-GDP (fluorescently labeled GDP) for GppNHp (Non-hydrolyzable GTP analog) to generate the active state of KRAS in the presence of SOS1 (guanine nucleotide exchange factor). Inhibitors were serially diluted in DMSO and a volume of 0.1 μL was transferred to the wells of a black low volume 384-well plate. Five μL/well volume of bodipy-loaded KRAS G12D or G12V diluted to a final concentration of 2.5 nM in assay buffer (25 mM Hepes pH 7.5, 50 mM NaCl, 10 mM MgCl2 and 0.01% Brij-35) was added to the plate and pre-incubated with inhibitor for 4 hours (G12D) or 3 hours (G12V) at ambient temperature. A cyclic peptide described to selectively bind G12D mutant (Sakamoto et al., BBRC 484.3 (2017), 605-611) or internal compounds with confirmed binding were used as positive controls in the assay plates. The exchange was initiated by the addition of a 5 μL/well volume containing 1 mM GppNHp and 300 nM SOS1 in assay buffer. The 10 μL/well reaction concentration of the bodipy-loaded KRAS G12D or G12V, GppNHp, and SOS1 were 2.5 nM, 500 uM, and 150 nM, respectively.
(§2) Either GraphPad prism or XLfit was used to analyze the data. The IC50 values were derived by fitting the data to a four parameter logistic equation producing a sigmoidal dose-response curve with a variable Hill coefficient. Prism equation: Y=Bottom+(Top−Bottom)/(1+10^((LogIC50-X)*Hill slope)); XLfit equation: Y=(A+((B−A)/(1+((X/C)^D)))) where X is the logarithm of inhibitor concentration and Y is the response.

KRAS G12D = KRAS G12D (Homo sapiens, UniProt P01116, G12D); assay: GDP-GTP exchange assay, KRAS G12D (bodipy-GDP/GppNHp, SOS1); format: biochemical; details: bodipy-loaded KRAS G12D 2.5 nM, 4 hours pre-incubation with inhibitor, SOS1 150 nM, GppNHp 500 uM; read-out: G12D_exchange (KRAS_G12D exchange assay IC50)
KRAS G12D, sequence (P01116 1-188 isoform P01116-2 G12D): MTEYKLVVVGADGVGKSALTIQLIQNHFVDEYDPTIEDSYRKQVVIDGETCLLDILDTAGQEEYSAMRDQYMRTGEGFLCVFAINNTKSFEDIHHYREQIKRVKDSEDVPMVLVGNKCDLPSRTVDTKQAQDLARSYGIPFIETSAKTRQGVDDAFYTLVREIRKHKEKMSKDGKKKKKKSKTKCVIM
Protocol: as §1, §2

KRAS G12V, sequence (P01116 1-188 isoform P01116-2 G12V): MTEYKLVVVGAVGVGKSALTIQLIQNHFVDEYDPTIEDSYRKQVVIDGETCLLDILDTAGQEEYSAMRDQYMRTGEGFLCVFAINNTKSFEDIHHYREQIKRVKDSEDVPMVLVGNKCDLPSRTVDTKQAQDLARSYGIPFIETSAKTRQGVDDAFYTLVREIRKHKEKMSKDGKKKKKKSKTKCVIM

| IC50 (KRAS G12V) [µM] | IC50 (KRAS G12D) [µM] | SMILES |
| --- | --- | --- |
| 0.1 to 1 | 0.1 to 1 | N#CCCc1cc2c3c(cnc2c(F)c1-c1cc(O)cc2ccccc12)N(c1ccccc1)C(=O)CN3[C@@H]1[C@@H]2CN[C@H]1C2 (relative stereo) [Example 17, 3-(1-((endo)-2-Azabicyclo[2.1.1]hexan-5-yl)-7-fluoro-8-(3-hydroxynaphthalen-1-yl)-3-oxo-4-phenyl-1,2,3,4-tetrahydropyrazino[2,3-c]quinolin-9-yl)propanenitrile] |
| 0.1 to 1 | 0.1 to 1 | C[C@H](Oc1nc2c(F)c(-c3c[nH]c4ccccc34)c(CCC#N)cc2c2c1NC(=O)CN2C1C2CNC1C2)[C@@H]1CCCN1C (single isomer, unassigned) [Example 1b] |
| 0.1 to 1 | 0.1 to 1 | C[C@H](Oc1nc2c(F)c(-c3cccc(Cl)c3Cl)c(CCC#N)cc2c2c1NC(=O)CN2C1C2CNC1C2)[C@@H]1CCCN1C (single isomer, unassigned) [Example 2a] |
| 0.1 to 1 | 0.1 to 1 | C[C@H](Oc1nc2c(F)c(-c3cccc(Cl)c3Cl)c(CCC#N)cc2c2c1NC(=O)CN2C1C2CNC1C2)[C@@H]1CCCN1C (single isomer, unassigned) [Example 2c] |
| 0.1 to 1 | 0.1 to 1 | C[C@H](Oc1nc2c(F)c(-c3cccc4ccc(F)cc34)c(CCC#N)cc2c2c1NC(=O)CN2C1C2CNC1C2)[C@@H]1CCCN1C (single isomer, unassigned) [Example 3b] |
| 1 to 5 | 1 to 5 | C[C@H](Oc1nc2c(F)c(-c3cc(O)cc4ccc(F)cc34)c(CCC#N)cc2c2c1NC(=O)CN2C1C2CNC1C2)[C@@H]1CCCN1C (single isomer, unassigned) [Example 4a] |
| 0.1 to 1 | 0.1 to 1 | C[C@H](Oc1nc2c(F)c(-c3cc(O)cc4ccc(F)cc34)c(CCC#N)cc2c2c1NC(=O)CN2C1C2CNC1C2)[C@@H]1CCCN1C (single isomer, unassigned) [Example 4b] |
| 1 to 5 | 1 to 5 | CNC(=O)c1ccc(-c2nc3c(F)c(-c4cc(O)cc5ccccc45)c(CCC#N)cc3c3c2NC(=O)CN3C2C3CNC2C3)cn1 (single isomer, unassigned) [Example 5b, 5-(1-((endo)-2-Azabicyclo[2.1.1]hexan-5-yl)-9-(2-cyanoethyl)-7-fluoro-8-(3-hydroxynaphthalen-1-yl)-3-oxo-1,2,3,4-tetrahydropyrazino[2,3-c]quinolin-5-yl)-N-methylpicolinamide] |
| 1 to 5 | 1 to 5 | N#CCCc1cc2c3c(c(-c4ccc5cccnc5c4)nc2c(F)c1-c1cc(O)cc2ccccc12)NC(=O)CN3C1C2CNC1C2 (single isomer, unassigned) [Example 6b, 3-(1-((endo)-2-Azabicyclo[2.1.1]hexan-5-yl)-7-fluoro-8-(3-hydroxynaphthalen-1-yl)-3-oxo-5-(quinolin-7-yl)-1,2,3,4-tetrahydropyrazino[2,3-c]quinolin-9-yl)propanenitrile] |
| 1 to 5 | 0.1 to 1 | Cn1cnc(-c2nc3c(F)c(-c4cc(O)cc5ccccc45)c(CCC#N)cc3c3c2NC(=O)CN3C2C3CNC2C3)c1 (single isomer, unassigned) [Example 7b, 3-(1-((endo)-2-Azabicyclo[2.1.1]hexan-5-yl)-7-fluoro-8-(3-hydroxynaphthalen-1-yl)-5-(1-methyl-1H-imidazol-4-yl)-3-oxo-1,2,3,4-tetrahydropyrazino[2,3-c]quinolin-9-yl)propanenitrile] |
| 1 to 5 | 0.1 to 1 | N#CCCc1cc2c3c(c(Cc4ccccc4)nc2c(F)c1-c1cc(O)cc2ccccc12)NC(=O)CN3C1C2CNC1C2 (single isomer, unassigned) [Example 8a, 3-(5-Benzyl-1-((endo)-2-azabicyclo[2.1.1]hexan-5-yl)-7-fluoro-8-(3-hydroxynaphthalen-1-yl)-3-oxo-1,2,3,4-tetrahydropyrazino[2,3-c]quinolin-9-yl)propanenitrile] |
| 5 to 10 | 5 to 10 | N#CCCc1cc2c3c(c(Cc4ccccc4)nc2c(F)c1-c1cc(O)cc2ccccc12)NC(=O)CN3C1C2CNC1C2 (single isomer, unassigned) [Example 8b, 3-(5-Benzyl-1-((endo)-2-azabicyclo[2.1.1]hexan-5-yl)-7-fluoro-8-(3-hydroxynaphthalen-1-yl)-3-oxo-1,2,3,4-tetrahydropyrazino[2,3-c]quinolin-9-yl)propanenitrile] |
| 1 to 5 | 1 to 5 | CNC(=O)c1cccc(-c2nc3c(F)c(-c4cc(O)cc5ccccc45)c(CCC#N)cc3c3c2NC(=O)CN3C2C3CNC2C3)c1 (single isomer, unassigned) [Example 9b, 3-(1-((endo)-2-Azabicyclo[2.1.1]hexan-5-yl)-9-(2-cyanoethyl)-7-fluoro-8-(3-hydroxynaphthalen-1-yl)-3-oxo-1,2,3,4-tetrahydropyrazino[2,3-c]quinolin-5-yl)-N-methylbenzamide] |
| 0.1 to 1 | 0.1 to 1 | N#CCCc1cc2c3c(c(OC[C@@]45CCCN4C[C@H](F)C5)nc2c(F)c1-c1cc(O)cc2ccccc12)NC(=O)CN3C1C2CNC1C2 (single isomer, unassigned) [Example 10c] |
| 5 to 10 | 1 to 5 | N#CCCc1cc2c3c(c(OC[C@@]45CCCN4C[C@H](F)C5)nc2c(F)c1-c1cc(O)cc2ccccc12)NC(=O)CN3C1C2CNC1C2 (single isomer, unassigned) [Example 10d] |
| 5 to 10 | 5 to 10 | C[C@@H](CN(C)C)Oc1nc2c(F)c(-c3cc(O)cc4ccccc34)c(CCC#N)cc2c2c1NC(=O)CN2C1C2CNC1C2 (single isomer, unassigned) [Example 11a] |
| 5 to 10 | 5 to 10 | C[C@@H](CN(C)C)Oc1nc2c(F)c(-c3cc(O)cc4ccccc34)c(CCC#N)cc2c2c1NC(=O)CN2C1C2CNC1C2 (single isomer, unassigned) [Example 11b] |
| 0.1 to 1 | 0.1 to 1 | C[C@@H](CN(C)C)Oc1nc2c(F)c(-c3cc(O)cc4ccccc34)c(CCC#N)cc2c2c1NC(=O)CN2C1C2CNC1C2 (single isomer, unassigned) [Example 11d] |
| 5 to 10 | 1 to 5 | CN1CCC[C@H]1COc1nc2c(F)c(-c3cc(O)cc4ccccc34)c(CCC#N)cc2c2c1CCCN2C1C2CNC1C2 (single isomer, unassigned) [Example 12a] |
| 0.1 to 1 | 0.1 to 1 | CN(C)C1CN(c2nc3c(F)c(-c4cc(O)cc5ccccc45)c(CCC#N)cc3c3c2NC(=O)CN3C2C3CNC2C3)C1 (single isomer, unassigned) [Example 13b, 3-(1-((endo)-2-Azabicyclo[2.1.1]hexan-5-yl)-5-(3-(dimethylamino)azetidin-1-yl)-7-fluoro-8-(3-hydroxynaphthalen-1-yl)-3-oxo-1,2,3,4-tetrahydropyrazino[2,3-c]quinolin-9-yl)propanenitrile] |
| 5 to 10 | 1 to 5 | CC1Cc2c(OC[C@@H]3CCCN3C)nc3c(F)c(-c4cc(O)cc5ccccc45)c(CCC#N)cc3c2N(C2C3CNC2C3)C1 (single isomer, unassigned) [Example 14c] |
| 1 to 5 | 1 to 5 | CC1Cc2c(OC[C@@H]3CCCN3C)nc3c(F)c(-c4cc(O)cc5ccccc45)c(CCC#N)cc3c2N(C2C3CNC2C3)C1 (single isomer, unassigned) [Example 14d] |
| 1 to 5 | 1 to 5 | C[C@H](Oc1nc2c(F)c(-c3cc(O)cc4ccccc34)c(CCC#N)cc2c2c1CCCN2C1C2CNC1C2)[C@@H]1CCCN1C (single isomer, unassigned) [Example 15a] |
| 5 to 10 | 5 to 10 | C[C@@H](CN(C)C)Oc1nc2c(F)c(-c3cc(O)cc4ccccc34)c(CCC#N)cc2c2c1CCCN2C1C2CNC1C2 (single isomer, unassigned) [Example 16a] |
| 0.1 to 1 | ≤ 0.1 | N#CCCc1cc2c3c(cnc2c(F)c1-c1cc(O)cc2ccccc12)N(CCC1CCNCC1)C(=O)CN3C1C2CNC1C2 (single isomer, unassigned) [Example 18a, 3-(1-((endo)-2-Azabicyclo[2.1.1]hexan-5-yl)-7-fluoro-8-(3-hydroxynaphthalen-1-yl)-3-oxo-4-(2-(piperidin-4-yl)ethyl)-1,2,3,4-tetrahydropyrazino[2,3-c]quinolin-9-yl)propanenitrile] |
| 0.1 to 1 | ≤ 0.1 | N#CCCc1cc2c3c(cnc2c(F)c1-c1cc(O)cc2ccccc12)N(CC(N)=O)C(=O)CN3C1C2CNC1C2 (single isomer, unassigned) [Example 19a, 2-(1-((endo)-2-Azabicyclo[2.1.1]hexan-5-yl)-9-(2-cyanoethyl)-7-fluoro-8-(3-hydroxynaphthalen-1-yl)-3-oxo-2,3-dihydropyrazino[2,3-c]quinolin-4(1H)-yl)acetamide] |
